Legend:
[1] = molecular target: T1, PI 3-kinase alpha (Homo sapiens, UniProt P42336); experiment: Kinase Glo Luminescent Kinase Assay (Kglo), assay A; type: biochemical; conditions: read-out: Assay A PI3Kα IC50
Target sequence in this assay (P42336 whole entry): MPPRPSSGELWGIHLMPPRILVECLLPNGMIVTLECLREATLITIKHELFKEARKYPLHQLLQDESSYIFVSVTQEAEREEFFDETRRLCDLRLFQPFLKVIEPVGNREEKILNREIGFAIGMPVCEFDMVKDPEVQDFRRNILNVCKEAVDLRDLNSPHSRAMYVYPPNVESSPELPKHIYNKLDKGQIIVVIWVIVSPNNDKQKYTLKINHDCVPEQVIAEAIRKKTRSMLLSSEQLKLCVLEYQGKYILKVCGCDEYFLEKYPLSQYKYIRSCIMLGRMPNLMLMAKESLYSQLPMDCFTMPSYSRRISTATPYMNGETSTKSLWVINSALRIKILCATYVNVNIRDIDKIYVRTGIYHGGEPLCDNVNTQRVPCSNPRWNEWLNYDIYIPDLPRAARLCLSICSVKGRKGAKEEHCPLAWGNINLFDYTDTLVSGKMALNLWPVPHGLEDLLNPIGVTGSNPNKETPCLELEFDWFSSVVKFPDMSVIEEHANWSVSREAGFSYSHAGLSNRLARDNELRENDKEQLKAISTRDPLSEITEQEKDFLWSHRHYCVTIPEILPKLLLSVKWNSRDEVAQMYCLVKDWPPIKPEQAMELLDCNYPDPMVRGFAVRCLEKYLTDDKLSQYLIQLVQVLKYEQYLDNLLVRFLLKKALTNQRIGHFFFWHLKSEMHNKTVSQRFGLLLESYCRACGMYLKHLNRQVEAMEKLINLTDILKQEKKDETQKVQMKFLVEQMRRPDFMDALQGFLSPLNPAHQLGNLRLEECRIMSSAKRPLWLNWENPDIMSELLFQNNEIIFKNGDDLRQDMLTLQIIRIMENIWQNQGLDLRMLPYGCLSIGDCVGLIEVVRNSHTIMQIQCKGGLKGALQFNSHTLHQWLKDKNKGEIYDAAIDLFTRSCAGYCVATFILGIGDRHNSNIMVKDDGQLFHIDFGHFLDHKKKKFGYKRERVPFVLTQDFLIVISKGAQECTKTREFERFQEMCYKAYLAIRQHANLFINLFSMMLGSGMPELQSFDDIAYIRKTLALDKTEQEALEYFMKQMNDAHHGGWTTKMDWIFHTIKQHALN

[2] = molecular target: T2, PI 3-kinase beta (Homo sapiens, UniProt P42338); experiment: Kinase Glo Luminescent Kinase Assay (Kglo), assay B; type: biochemical; conditions: read-out: Assay B PI3Kβ IC50
Target sequence in this assay (P42338 whole entry): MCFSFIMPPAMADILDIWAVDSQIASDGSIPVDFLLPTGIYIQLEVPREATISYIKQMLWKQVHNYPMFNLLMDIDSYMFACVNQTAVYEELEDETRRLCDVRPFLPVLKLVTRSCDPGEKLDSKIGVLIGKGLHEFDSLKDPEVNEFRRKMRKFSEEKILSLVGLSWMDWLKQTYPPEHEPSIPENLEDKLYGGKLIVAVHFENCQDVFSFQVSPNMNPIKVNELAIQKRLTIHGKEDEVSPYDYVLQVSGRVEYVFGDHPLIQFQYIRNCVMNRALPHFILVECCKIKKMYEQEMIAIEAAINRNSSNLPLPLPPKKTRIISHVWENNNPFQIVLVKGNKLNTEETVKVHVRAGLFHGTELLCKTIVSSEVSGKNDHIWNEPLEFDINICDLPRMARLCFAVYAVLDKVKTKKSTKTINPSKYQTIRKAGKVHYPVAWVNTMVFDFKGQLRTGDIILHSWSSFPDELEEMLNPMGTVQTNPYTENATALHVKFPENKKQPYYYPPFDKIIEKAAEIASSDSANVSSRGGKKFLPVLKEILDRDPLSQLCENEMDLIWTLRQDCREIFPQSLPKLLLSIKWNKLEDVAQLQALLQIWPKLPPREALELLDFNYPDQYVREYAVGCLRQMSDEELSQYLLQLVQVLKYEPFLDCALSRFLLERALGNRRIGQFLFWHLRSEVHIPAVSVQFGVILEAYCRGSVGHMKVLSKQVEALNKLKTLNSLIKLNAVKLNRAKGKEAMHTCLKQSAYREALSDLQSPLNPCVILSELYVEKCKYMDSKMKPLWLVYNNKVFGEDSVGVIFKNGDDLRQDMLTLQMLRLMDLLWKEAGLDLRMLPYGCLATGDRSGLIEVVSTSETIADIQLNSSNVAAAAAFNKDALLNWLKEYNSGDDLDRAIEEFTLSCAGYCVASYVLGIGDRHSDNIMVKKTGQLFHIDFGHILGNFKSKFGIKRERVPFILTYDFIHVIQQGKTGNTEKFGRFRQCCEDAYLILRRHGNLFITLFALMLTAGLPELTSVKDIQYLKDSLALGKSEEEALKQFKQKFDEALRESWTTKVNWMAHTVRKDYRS
Target sequence in this assay (P27986 461-568 partner): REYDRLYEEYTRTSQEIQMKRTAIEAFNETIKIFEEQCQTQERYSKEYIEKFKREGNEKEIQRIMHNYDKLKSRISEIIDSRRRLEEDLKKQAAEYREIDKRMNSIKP

[3] = molecular target: Vps34 (Homo sapiens, UniProt Q8NEB9); experiment: Kinase Glo Luminescent Kinase Assay (Kglo), assay C; type: biochemical; conditions: read-out: Assay C VPS34 IC50
Sequence of Vps34 (Q8NEB9 whole entry, species assumed): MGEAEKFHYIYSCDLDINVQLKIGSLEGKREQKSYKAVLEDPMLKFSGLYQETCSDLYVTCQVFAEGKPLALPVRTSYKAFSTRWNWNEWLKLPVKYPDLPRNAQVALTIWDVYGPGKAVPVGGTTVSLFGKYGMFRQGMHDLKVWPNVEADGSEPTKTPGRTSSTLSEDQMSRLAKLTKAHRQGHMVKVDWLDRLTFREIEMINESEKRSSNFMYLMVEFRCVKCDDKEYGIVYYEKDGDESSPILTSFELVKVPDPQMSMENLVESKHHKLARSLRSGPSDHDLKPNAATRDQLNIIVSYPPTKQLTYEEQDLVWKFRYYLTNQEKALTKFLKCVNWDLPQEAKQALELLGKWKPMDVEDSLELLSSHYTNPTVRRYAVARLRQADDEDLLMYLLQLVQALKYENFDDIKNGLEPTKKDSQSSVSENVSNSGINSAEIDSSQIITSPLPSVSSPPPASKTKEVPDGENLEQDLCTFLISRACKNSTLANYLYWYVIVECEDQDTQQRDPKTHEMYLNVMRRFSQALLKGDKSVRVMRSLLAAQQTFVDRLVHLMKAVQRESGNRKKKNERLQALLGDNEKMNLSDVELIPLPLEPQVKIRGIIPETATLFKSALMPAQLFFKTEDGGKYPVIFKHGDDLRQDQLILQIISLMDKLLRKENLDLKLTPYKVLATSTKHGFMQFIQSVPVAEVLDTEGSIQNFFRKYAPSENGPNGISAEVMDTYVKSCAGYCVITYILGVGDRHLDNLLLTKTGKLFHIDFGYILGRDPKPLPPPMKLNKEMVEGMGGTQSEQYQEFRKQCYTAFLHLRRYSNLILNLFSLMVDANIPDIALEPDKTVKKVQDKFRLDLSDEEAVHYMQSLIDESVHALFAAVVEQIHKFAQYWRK

[4] = molecular target: PI 4-kinase beta (Homo sapiens, UniProt Q9UBF8); experiment: Kinase Glo Luminescent Kinase Assay (Kglo), assay D; type: biochemical; conditions: read-out: Assay D PI4Kβ IC50
[5] = molecular target: PI 3-kinase gamma (Homo sapiens, UniProt P48736); experiment: TR-FRET Adapta assay, assay E; type: biochemical; conditions: for IC50: read-out: Assay E PI3Kγ IC50
Sequence of PI 3-kinase gamma (P48736 whole entry): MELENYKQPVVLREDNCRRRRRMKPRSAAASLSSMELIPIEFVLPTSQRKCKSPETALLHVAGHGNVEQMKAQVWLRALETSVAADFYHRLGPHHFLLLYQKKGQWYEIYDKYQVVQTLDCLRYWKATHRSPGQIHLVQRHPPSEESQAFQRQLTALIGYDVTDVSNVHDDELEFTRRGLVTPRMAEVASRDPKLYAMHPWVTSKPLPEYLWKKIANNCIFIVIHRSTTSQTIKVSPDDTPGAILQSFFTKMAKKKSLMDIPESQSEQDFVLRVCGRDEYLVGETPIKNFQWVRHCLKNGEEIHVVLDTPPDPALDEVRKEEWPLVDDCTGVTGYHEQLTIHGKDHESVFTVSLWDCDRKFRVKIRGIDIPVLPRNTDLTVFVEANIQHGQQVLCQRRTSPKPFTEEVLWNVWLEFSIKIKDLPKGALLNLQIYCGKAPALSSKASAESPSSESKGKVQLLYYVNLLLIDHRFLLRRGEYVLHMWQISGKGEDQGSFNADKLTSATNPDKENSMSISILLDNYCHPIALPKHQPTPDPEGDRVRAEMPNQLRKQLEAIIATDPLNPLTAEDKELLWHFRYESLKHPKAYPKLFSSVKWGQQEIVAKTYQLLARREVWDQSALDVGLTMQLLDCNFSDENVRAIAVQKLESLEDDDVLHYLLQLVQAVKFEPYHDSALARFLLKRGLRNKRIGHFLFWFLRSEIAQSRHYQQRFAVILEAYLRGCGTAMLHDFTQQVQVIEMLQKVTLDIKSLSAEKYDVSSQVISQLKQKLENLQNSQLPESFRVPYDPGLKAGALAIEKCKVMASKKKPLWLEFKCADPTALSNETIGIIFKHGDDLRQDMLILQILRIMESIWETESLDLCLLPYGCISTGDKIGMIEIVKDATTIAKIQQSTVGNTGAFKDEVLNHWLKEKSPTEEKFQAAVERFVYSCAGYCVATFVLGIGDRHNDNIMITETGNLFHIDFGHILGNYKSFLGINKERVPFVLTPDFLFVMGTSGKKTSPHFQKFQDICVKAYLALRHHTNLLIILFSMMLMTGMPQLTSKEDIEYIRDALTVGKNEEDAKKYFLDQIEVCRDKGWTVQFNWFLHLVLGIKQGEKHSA
Procedure: TR-FRET Adapta Assay for PI 3-Kinase Gamma (E), PI 3-Kinase Delta (F)
The TR-FRET Adapta™ Universal Kinase Assay Kit was purchased from Invitrogen Corporation (Carlsbad/CA, USA) (Cat. No. PV5099).
PIK3CD substrate phosphatidylinositol (PI) was obtained from Invitrogen (vesicules consisting of 2 mM phosphatidylinositol (PI) in 50 mM HEPES pH7.5; Cat. No. PV5371). PIK3CG substrate phosphatidylinositol-4,5-bisphosphate (PIP(4,5)2 was obtained from Invitrogen (PIP2:PS large unilamellar vesicules consisting of 1 mM PIP2: 19 mM PS in 50 mM HEPES pH7.5, 3 mM MgCl2, 1 mM EGTA; Cat. No. PV5100).
Time-Resolved Fluorescence Resonance Energy Transfer (TR-FRET) is a technology based on energy transfer between two adjacent dyes, from an excited electron in one dye (the donor) to an electron of an adjacent dye (the acceptor) through resonance, then released as a photon. This energy transfer is detected by an increase in the fluorescence emission of the acceptor, and a decrease in the fluorescence emission of the donor. TR-FRET assays for protein kinases use a long-lifetime lanthanide Terbium or Europium chelates as the donor species which overcome interference from compound autofluorescence or light scatter from precipitated compounds, by introducing a delay after excitation by a flashlamp excitation source. Results are often expressed as a ratio of the intensities of the acceptor and donor fluorophores. The ratiometric nature of such a value corrects for differences in assay volumes between wells, as well as corrects for quenching effects due to colored compounds. The Adapta™ assay can be divided into two phases: a kinase reaction phase and an ADP detection phase. In the kinase reaction phase, all kinase reaction components are added to the well and the reaction is allowed to incubate for a set period of time specific for each kinase. […] In the presence of an inhibitor, the amount of ADP formed by the kinase reaction is reduced, and the resulting intact antibody-tracer interaction maintains a high TR-FRET signal.
50 nL of compound dilutions were dispensed onto white 384-well small volume polystyrene plate. Then 5 μL of either PI 3-kinase gamma or PI 3-kinase delta and lipid substrate (PI or PIP2:PS) followed by 5 μL of ATP (final assay volume 10 μL) are incubated at RT. The standard reaction buffer for the Adapta™ TR-FRET assay contained 10 mM Tris-HCl pH 7.5, 3 mM MgCl2, 50 mM NaCl, 1 mM DTT, 0.05% CHAPS 3-[(3-cholamidopropyl)dimethylammonio]-1-propanesulfonate).
Data are analyzed using Excel fit software or Graphpad Prism. IC50 values were derived by fitting a sigmoidal dose-response curve to a plot of assay readout over inhibitor concentration. All fits were performed with the program XLfit4 (ID Business Solutions, Guildford, UK). […] All fits were performed with the program XLfit4 (ID Business Solutions, Guildford, UK).

[6] = molecular target: mTOR (Homo sapiens, UniProt P42345); experiment: Lanthascreen kinase binding assay, assay G; conditions: read-out: Assay G mTOR IC50
Procedure: Lanthascreen™ Kinase Binding Assay for mTOR (G)
Binding of an inhibitor to the kinase competes for binding with the tracer, resulting in a loss of FRET.
50 nL of compound dilutions were dispensed onto white 384-well small volume polystyrene plate.

[7] = molecular target: T1, PI 3-kinase alpha; experiment: Cellular assay H1, p-Akt (S473) in Rat-1 cells, Surefire format; type: cell-based; conditions: non-asterisked data: version H1 (Surefire format), Rat-1 cells; read-out: Assay H PI3Kα IC50
Target sequence in this assay (P42336 whole entry): as the sequence (P42336 whole entry) above
Target sequence in this assay (Q63787 whole entry partner): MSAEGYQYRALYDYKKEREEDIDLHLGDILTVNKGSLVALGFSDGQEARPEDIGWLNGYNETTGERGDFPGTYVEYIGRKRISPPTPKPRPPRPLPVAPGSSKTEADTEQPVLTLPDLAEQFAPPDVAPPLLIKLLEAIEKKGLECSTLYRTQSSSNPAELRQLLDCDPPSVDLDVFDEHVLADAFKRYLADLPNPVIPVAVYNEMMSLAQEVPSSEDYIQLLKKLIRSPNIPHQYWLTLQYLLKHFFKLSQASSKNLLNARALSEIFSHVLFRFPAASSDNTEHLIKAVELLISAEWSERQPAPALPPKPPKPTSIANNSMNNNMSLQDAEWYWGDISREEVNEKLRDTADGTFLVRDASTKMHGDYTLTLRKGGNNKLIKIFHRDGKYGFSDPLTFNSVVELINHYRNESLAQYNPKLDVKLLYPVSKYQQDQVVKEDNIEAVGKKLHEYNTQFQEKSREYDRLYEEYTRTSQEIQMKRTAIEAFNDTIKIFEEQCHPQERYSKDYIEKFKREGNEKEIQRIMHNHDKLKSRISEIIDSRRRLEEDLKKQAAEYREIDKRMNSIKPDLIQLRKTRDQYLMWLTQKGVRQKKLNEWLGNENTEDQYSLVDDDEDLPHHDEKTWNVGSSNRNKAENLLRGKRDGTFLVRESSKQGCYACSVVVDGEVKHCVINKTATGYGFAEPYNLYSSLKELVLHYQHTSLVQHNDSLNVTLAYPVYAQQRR

[8] = molecular target: T2, PI 3-kinase beta; experiment: Cellular assay I1, p-Akt (S473) in Rat-1 cells, Surefire format; type: cell-based; conditions: non-asterisked data: version I1 (Surefire format), Rat-1 cells; read-out: Assay I PI3Kβ IC50
Target sequence in this assay (P42338 whole entry): as the sequence (P42338 whole entry) above
Target sequence in this assay (Q63787 whole entry partner): as the sequence (Q63787 whole entry partner) above

[9] = molecular target: T3, PI 3-kinase delta (Homo sapiens, UniProt O00329); experiment: Cellular assay J1, p-Akt (S473) in Rat-1 cells, Surefire format; type: cell-based; conditions: non-asterisked data: version J1 (Surefire format), Rat-1 cells; read-out: Assay J PI3Kδ IC50
[10] = molecular target: T3, PI 3-kinase delta; experiment: TR-FRET Adapta assay, assay F
[11] = Microsomal clearance assay (M); conditions: intrinsic clearance in rat liver microsomes
Procedure: The experiments were performed in 96-well glass plates at 37° C. on an automated Tecan EVO platform. Test compounds at a concentration of 10 mM in pure DMSO were diluted 1:1000 in water to 10 μM. […] Reactions were initiated by the addition of 150 μL of a cofactor solution containing 2 mM NADPH.

IC50 [1] [nM]	IC50 [2] [µM]	IC50 [3] [µM]	IC50 [4] [µM]	IC50 [5] [nM]	IC50 [6] [µM]	IC50 [7] [nM]	IC50 [8] [µM]	IC50 [9] [µM]	IC50 ([10]; read-out: Assay F PI3Kδ IC50) [nM]	activity in assay E ([5]; TR-FRET Adapta, PI 3-kinase gamma)	Structure (SMILES)	IC50 [10] [nM]	Assay M RLM CI(int) [11] [µL/min/mg]
490	8.04	> 9.1	8.19	248	> 9.1	1320	4.48	1.3	580	–	Cc1ccc(S(=O)(=O)NCCC(C)(C)O)cc1-c1cnc(N)c(-c2ccc(F)nc2)n1 [Example 119.18]	–	–
450	> 9.1	> 9.1	> 9.1	303	> 9.1	2540	3.56	6.94	1100	–	Cc1ccc(S(=O)(=O)NCCC(C)(C)O)cc1-c1cnc(N)c(-c2ccncc2F)n1 [Example 119.11]	–	–
1450	> 9.1	> 9.1	1.56	362	> 9.1	2810	6.17	7.16	2540	–	Cc1ccc(S(=O)(=O)NCCC(C)(C)O)cc1-c1cnc(N)c(-c2ccc(N3CCCC3)nc2)n1 [Example 119.17]	–	–
2980	> 9.1	> 9.1	7.96	278	4.32	6970	4.05	5.93	720	–	Cc1cncc(-c2nc(-c3cc(S(=O)(=O)NCCC(C)(C)O)ccc3C)cnc2N)c1 [Example 119.7]	–	–
1090	> 9.1	> 9.1	3.4	761	9.02	2600	9.22	3.17	1670	–	Cc1ccc(S(=O)(=O)NCCC(C)(C)O)cc1-c1cnc(N)c(-c2ccc(OC3CCOCC3)nc2)n1 [Example 119.24]	–	–
610	> 9.1	> 9.1	6.2	1000	4.91	2690	3.81	2.82	2300	–	Cc1ccc(S(=O)(=O)NCCC(C)(C)O)cc1-c1cnc(N)c(-c2cccnc2F)n1 [Example 119.1]	–	–
1340	> 9.1	> 9.1	0.94	525	7.6	1970	8.49	3.53	2040	–	Cc1ccc(S(=O)(=O)NCCC(C)(C)O)cc1-c1cnc(N)c(-c2ccc(N3CCCCC3)nc2)n1 [Example 119.23]	–	–
330	7.78	> 9.1	0.69	178	> 9.1	1920	3.07	4.23	900	–	Cc1ccc(S(=O)(=O)NCCC(C)(C)O)cc1-c1cnc(N)c(-c2cnc(Cl)cc2C)n1 [Example 119.9]	–	–
2830	> 9.1	> 9.1	> 9.1	3120	> 9.1	> 10000	> 10	> 10	5700	–	COc1ncccc1-c1nc(-c2cc(S(=O)(=O)NCCC(C)(C)O)ccc2C)cnc1N [Example 119.4]	–	–
> 9100	> 9.1	> 9.1	> 9.1	3470	> 9.1	> 10000	> 10	> 10	> 9100	–	Cc1ccc(S(=O)(=O)NCCC(C)(C)O)cc1-c1cnc(N)c(-c2cnn(C)c2C)n1 [Example 119.19]	–	–

Second part, the compound before the results:

Structure (SMILES)	IC50 [1] [nM]	IC50 [2] [µM]	IC50 [3] [µM]	IC50 [4] [µM]	IC50 [5] [nM]	IC50 [6] [µM]	IC50 [7] [nM]	IC50 [8] [µM]	IC50 [9] [µM]	IC50 ([10]; read-out: Assay F PI3Kδ IC50) [nM]	activity in assay E ([5]; TR-FRET Adapta, PI 3-kinase gamma)	IC50 [10] [nM]	Assay M RLM CI(int) [11] [µL/min/mg]
Cc1ccc(S(=O)(=O)NCC2CN(C)CCO2)cc1-c1cnc(N)c(-c2cn(C)nc2C)n1 (centres unmarked) [Example 128.5, 3-(5-Amino-6-(1,3-dimethyl-1H-pyrazol-4-yl)pyrazin-2-yl)-4-methyl-N-((4-methylmorpholin-2-yl)methyl)benzenesulfonamide]	2300	9.6	> 10	> 10	370	–	> 10000	> 10	> 10	2200	–	–	–
Cc1ccc(S(=O)(=O)NCC2COCCN2C)cc1-c1cnc(N)c(-c2cn(C)nc2C)n1 (single isomer, unassigned) [Example 128.3b, (R)-3-(5-Amino-6-(1,3-dimethyl-1H-pyrazol-4-yl)pyrazin-2-yl)-4-methyl-N-((4-methylmorpholin-3-yl)methyl)benzenesulfonamide or (S)-3-(5-Amino-6-(1,3-dimethyl-1H-pyrazol-4-yl)pyrazin-2-yl)-4-methyl-N-((4-methylmorpholin-3-yl)methyl)benzenesulfonamide]	370	–	> 10	4.6	55	–	4970	–	3.82	–	–	540	–
Cc1ccc(S(=O)(=O)NCCC(C)(C)O)cc1-c1cnc(N)c(-c2cccnc2OC(C)C)n1 [Reference example 119.12, 3-(5-amino-6-(2-isopropoxypyridin-3-yl)pyrazin-2-yl)-N-(3-hydroxy-3-methylbutyl)-4-methylbenzenesulfonamide]	–	–	–	–	–	–	> 10000	> 10	> 10	–	not shown any activity	–	–
Cc1ccc(S(=O)(=O)NC2CC3(CC(O)C3)C2)cc1-c1cnc(N)c(-c2cn(C)nc2C)n1 (centres unmarked) [Example 74, 3-(5-Amino-6-(1,3-dimethyl-1H-pyrazol-4-yl)pyrazin-2-yl)-N-(6-hydroxyspiro[3.3]heptan-2-yl)-4-methylbenzenesulfonamide]	–	0.83	> 10	–	41	3.5	–	> 10	6.86	380	–	–	30
Cc1cc(-c2nc(-c3cc(S(=O)(=O)NC4CCNC(=O)C4)ccc3C)cnc2N)ccn1 (centres unmarked) [Example 134, 3-(5-Amino-6-(2-methylpyridin-4-yl)pyrazin-2-yl)-4-methyl-N-(2-oxopiperidin-4-yl)benzenesulfonamide]	400	4.33	> 9.1	7.17	55	> 9.1	> 10000	> 10	> 10	350	–	–	–
Cc1ccc(S(=O)(=O)NCCC(C)(C)O)cc1-c1cnc(N)c(-c2cc(Cl)cnc2F)n1 [Example 119.8]	1050	> 9.1	> 9.1	4.53	167	5.94	3850	4.64	5.2	200	–	–	–
COc1ccc(-c2nc(-c3cc(S(=O)(=O)NCCC(C)(C)O)ccc3C)cnc2N)c(C)n1 [Example 119.14]	1160	> 9.1	> 9.1	7.35	667	8.53	3140	4.39	4.96	1440	–	–	–
Cc1ccc(S(=O)(=O)NCCC(C)(C)O)cc1-c1cnc(N)c(-c2cc(C(F)(F)F)nn2C)n1 [Example 119, 3-(5-Amino-6-(1-methyl-3-(trifluoromethyl)-1H-pyrazol-5-yl)pyrazin-2-yl)-N-(3-hydroxy-3-methylbutyl)-4-methylbenzenesulfonamide]	600	> 9.1	> 9.1	> 9.1	118	4.31	1640	3.06	1.76	710	–	–	–
Cc1ncc(-c2nc(-c3cc(S(=O)(=O)NC4CCC(F)(F)CC4)ccc3C)cnc2N)s1 [Example 55, 3-(5-Amino-6-(2-methylthiazol-5-yl)pyrazin-2-yl)-N-(4,4-difluorocyclohexyl)-4-methylbenzenesulfonamide]	–	0.12	0.64	3.74	–	0.62	–	2.67	1.24	30	–	–	–
Cc1ccc(S(=O)(=O)NC[C@@H]2COCCN2C)cc1-c1cnc(N)c(-c2cn(C)nc2C)n1 (single isomer, unassigned) [Example 128.3a, (R)-3-(5-Amino-6-(1,3-dimethyl-1H-pyrazol-4-yl)pyrazin-2-yl)-4-methyl-N-((4-methylmorpholin-3-yl)methyl)benzenesulfonamide or (S)-3-(5-Amino-6-(1,3-dimethyl-1H-pyrazol-4-yl)pyrazin-2-yl)-4-methyl-N-((4-methylmorpholin-3-yl)methyl)benzenesulfonamide]	–	–	> 10	> 10	–	–	5150	–	2.1	–	–	–	–
